Laboratory results: US12171856B2, “Use of salidroside derivative in external preparation for skin whitening” (SHANGHAI CHEERMORE BIOLOGICAL TECHNOLOGY CO., LTD, priority 2019, dated 2024)

Columns and labels:
Kunming mice = test: Long-term toxicity test on mouse skin; type: in vivo
Protocol: Kunming mice were used to conduct the experiment in this section. SP-037 was prepared into solutions with concentrations of 2.5% (mass to volume ratio), 5% (mass to volume ratio), and 10% (mass to volume ratio) using NS. A control group, a 2.5% dosage group, a 5% dosage group, and a 10% dosage group were set, separately. One mouse was used for the blank group, and two mice were used for each of the experimental groups. Application on the dorsal skin: the hair on the back of mice was removed by depilatory cream, and a drug was applied at a corresponding concentration on the bare skin every day, which lasted for 3 months. During the test period, pictures were taken and the body weight of mice were recorded regularly, and it was observed whether there were white spots and other skin irritation or poisoning phenomena.

tool melanocytes = test: Inhibition of NGF/UV-induced melanin generation in tool melanocytes (absorbance at 490 nm); type: cell-based; settings: 60 h, FIG. 6
Protocol: Human melanocytes and tool melanocytes were used to conduct the experiment in this section. Human melanocytes and tool melanocytes were inoculated in a 96-well plate, with a plating density of 5,000 cells/well. After the cells adhered to a wall, nerve growth factor (NGF) was added to the culture and the culture was irradiated with UV to induce the generation of melanin, which simulated a melanin generation process in vivo. Then β-D-glucoside derivatives to be tested each were added at a final concentration of 100 μM to the cells, and the cells were further cultivated in an incubator at 37° C. and 5% CO2 for 60 h, where 3 replicates were set for each group. […] The cells were lysed with a NaOH (1 mol/L) solution including 10% dimethyl sulfoxide (DMSO) in a 65° C. water bath to make melanin granules completely dissolved out, and the absorbance at 490 nm was determined with a microplate reader. Finally, the absorbance value was used to reflect a melanin content.
Human melanocytes and tool melanocytes were used to conduct the experiment in this section. […] The cells were lysed with a NaOH (1 mol/L) solution including 10% DMSO in a 65° C. water bath to make melanin granules completely dissolved out, and the absorbance at 490 nm was determined with a microplate reader. Finally, the absorbance value was used to reflect a melanin content. […]

Human melanocytes = test: Inhibition of NGF/UV-induced melanin generation in human melanocytes (absorbance at 490 nm); type: cell-based; settings: 60 h
Protocol: Human melanocytes and tool melanocytes were used to conduct the experiment in this section. Human melanocytes and tool melanocytes were inoculated in a 96-well plate, with a plating density of 5,000 cells/well. After the cells adhered to a wall, nerve growth factor (NGF) was added to the culture and the culture was irradiated with UV to induce the generation of melanin, which simulated a melanin generation process in vivo. Then β-D-glucoside derivatives to be tested each were added at a final concentration of 100 μM to the cells, and the cells were further cultivated in an incubator at 37° C. and 5% CO2 for 60 h, where 3 replicates were set for each group. The cells were washed with pre-cooled phosphate buffered saline (PBS), then digested with trypsin, and centrifuged, and a resulting supernatant was discarded. The cells were lysed with a NaOH (1 mol/L) solution including 10% dimethyl sulfoxide (DMSO) in a 65° C. water bath to make melanin granules completely dissolved out, and the absorbance at 490 nm was determined with a microplate reader. Finally, the absorbance value was used to reflect a melanin content.
Human melanocytes and tool melanocytes were used to conduct the experiment in this section. Human melanocytes and tool melanocytes were inoculated in a 96-well plate, with a plating density of 5,000 cells/well. After the cells adhered to a wall, NGF was added to the culture and the culture was irradiated with UV to induce the generation of melanin, which simulated a melanin generation process in vivo. SP-037 was added to the cells at 6 concentrations of 0 μM, 12.5 μM, 25 μM, 50 μM, 100 μM, and 200 μM, and then the cells were further cultivated in an incubator at 37° C. and 5% CO2 for 60 h, where 5 replicates were set for each group. The cells were washed with pre-cooled PBS, then digested with trypsin, and centrifuged, and a resulting supernatant was discarded. The cells were lysed with a NaOH (1 mol/L) solution including 10% DMSO in a 65° C. water bath to make melanin granules completely dissolved out, and the absorbance at 490 nm was determined with a microplate reader. Finally, the absorbance value was used to reflect a melanin content.
Human melanocytes and tool melanocytes were used to conduct the experiment in this section. Human melanocytes and tool melanocytes were inoculated in a 96-well plate, with a plating density of 5,000 cells/well. […] The cells were lysed with a NaOH (1 mol/L) solution including 10% DMSO in a 65° C. water bath to make melanin granules completely dissolved out, and the absorbance at 490 nm was determined with a microplate reader. Finally, the absorbance value was used to reflect a melanin content.

[1] = test system: skin at the inner side of the arm of volunteers with dark skin; test: Skin whitening effect in volunteers (Dermalab skin color probe, melanin and L*a*b values); type: in vivo, human
Protocol: A total of 33 volunteers with dark skin were recruited, and the 33 volunteers were 22 to 38 years old. The 33 volunteers were randomly divided into 7 groups, including: a blank control group: 3, an SP-037 group: 5; a VC group: 5; a kojic acid group: 5; a thiamidol group: 5; a hydroquinone group: 5; and a 377 group: 5. A blank gel and gels with the main components of SP-037, VC, kojic acid, thiamidol, hydroquinone, and 377 respectively were prepared. An inner side of the left arm of each volunteer in each group was washed and then evenly applied with a corresponding gel every day, which lasted for 4 weeks. The Dermalab instrument was used to determine the characteristics of skin at the inner side of the arm with a skin color test probe on day 0, day 14, and day 28 to obtain melanin and L*a*b values, and according to final statistical data, the whitening effect of each component was analyzed.

[2] = test system: arm skin of the volunteers; test: Human skin irritation test (patch test); type: in vivo; settings: gel with 10% SP-037 in 2% sodium carboxymethyl cellulose
Protocol: In order to further achieve the use of SP-037 in the field of skin care, it is necessary to ensure the safety of SP-037 first. In the experiment of this section, a gel (2% sodium carboxymethyl cellulose prepared with deionized water) with the main component of 10% SP-037 was prepared, then volunteers were recruited, and a patch test was conducted on the arm skin of the volunteers to evaluate the safety of SP-037.

Which “white spots, skin irritation injuries or poisoning symptoms” value (Kunming mice; 2.5%, 5%, 10% (mass to volume) in NS applied daily on dorsal skin) does the source give for `OC[C@H]1O[C@@H](OCCc2cc(O)cc(O)c2)[C@H](O)[C@@H](O)[C@@H]1O` [SP-037] here?
Its value is “none of the mice has white spots, redness and swelling, and other skin irritation injuries, or poisoning symptoms”.

And the “changes in the body weight and skin condition” value (Kunming mice; 2.5%, 5%, 10% (mass to volume) in NS applied daily on dorsal skin, FIG. 7 and FIG. 8)?
The value was “in line with the growth pattern of normal mice”.

What about the “white spots, skin irritation and toxicity (conclusion of long-term toxicity test)” value (Kunming mice; at a dosage of 10% (mass to volume ratio)) of the same compound?
The value was “will not cause white spots, skin irritation, and toxicity”.

What about the “inhibitory activity on melanin generation compared with whitening positive drugs” value (tool melanocytes) of the same compound?
Its value is “significantly better than that of VC and kojic acid, but slightly inferior to that of hydroquinone”.

And the “effect of SP-037 on a melanin content” value (Human melanocytes; 0-200 μM, human melanocytes and tool melanocytes (not separated in text), FIG. 5)?
The value was “can significantly inhibit the generation of melanin at a cellular level”.

And the “effects of β-D-glucoside derivatives on a melanin content” value (Human melanocytes; final concentration 100 μM, human melanocytes and tool melanocytes (not separated in text), FIG. 1)?
The value was “shows the optimal effect”.

What about the “inhibitory activity on in vitro simulated melanin generation compared with whitening positive drugs” value (Human melanocytes; human melanocytes, FIG. 6) of the same compound?
Its value is “significantly better than that of the positive drugs VC, kojic acid, and hydroquinone”.

And the “concentration showing an ideal effect on melanin generation” value (Human melanocytes; tested at 12.5-200 μM, human melanocytes and tool melanocytes, FIG. 5)?
The value was 50 µM.

And the “effect on melanin content in skin (skin melanin pigmentation)” value ([1]; gel applied daily for 4 weeks, day 0, 14, 28, FIG. 10)?
Its value is “can significantly improve the skin melanin pigmentation”.

And the “effect on skin brightness” value ([1]; gel applied daily for 4 weeks, day 0, 14, 28, FIG. 11)?
The value was “improve the skin brightness”.

What about the “whitening effect compared with VC, kojic acid, thiamidol, hydroquinone and 377” value ([1]; gels applied daily for 4 weeks, FIG. 10 and FIG. 11) of the same compound?
The value was “significantly better than that of raw materials VC, kojic acid, thiamidol, and hydroquinone currently on the market, but slightly inferior to that of 377”.

What about the “irritating pain, itching felt by volunteers during patch test” value [2] of the same compound?
The value was “no irritating pain, itching, or the like”.

And the “sensitization to the skin (patch test)” value ([2]; FIG. 9)?
Its value is “has no sensitization to the skin”.
